# Data reported in patent US20230015532A1, “PHARMACEUTICAL COMPOSITION, FOR PREVENTING OR TREATING FIBROSIS, COMPRISING PHEOPHORBIDE COMPOUND AS ACTIVE INGREDIENT” (PAEAN BIOTECHNOLOGY INC., priority 2019, published 2023).
# Tests used:
# [1] = system: CCD8-Lu cells and LL-29 cells; assay: Cytotoxicity of pheophorbide a (WST-1 cell survival); format: cell-based, human; conditions: 72 hours, CCD8-Lu and LL-29
# Procedure: In order to confirm the cytotoxicity of pheophorbide a obtained in Preparation Example 2, CCD8-Lu cells and LL-29 cells which are human lung-derived fibroblasts, were used. CCD8-Lu cells and LL-29 cells were inoculated into 96 well plates with […] cells/well and stabilized while culturing for 24 hours in a wet CO2 incubator at 37° C. The cultured cells were treated with different concentrations of pheophorbide a obtained in Preparation Example 2 and, 72 hours later, treated with the WST-1 reagent. After 1 hour, the survival rate of the cells was measured using a microplate reader (EZ Read 400, biochrom, UK) to determine the absorbance at 450 nm, and the toxicity was evaluated.
# The cell survival rate as a result of the experiment is shown in FIG. 3 by expressing the percentage of the absorbance of the sample-treated group relative to the control group.
# [2] = system: Smad protein activity in Balb/c3T3 cells; assay: Smad-binding luciferase reporter assay of TGF-β signaling; format: cell-based; conditions: 0.06-5 μM together with 5 ng/ml TGF-β, 20 hours
# Procedure: A vector was prepared in which a gene obtained by repeating eight times the nucleotide sequence (5′-[…]-3′ SEQ ID NO: 1) to which the Smad gene can bind was linked to a gene encoding luciferase as a reporter gene. The above vector was transfected into Balb/c3T3 cells together with a vector in which the RSV promoter gene was linked to a gene encoding beta-galactosidase. After 6 hours, the negative control group was treated with nothing, the positive control group was treated with TGF-β at a concentration of 5 ng/ml, and the experimental groups were treated with pheophorbide a obtained in Preparation Example 2 at each concentration of 0.06 μM, 0.12 μM, 0.25 μM, 0.5 μM, 1 μM, and 5 μM, together with 5 ng/ml of TGF-β.
# The cells were then cultured in 5% CO2 incubator at 37° C. for 20 hours, and then luciferase analysis was performed.
# [3] = system: collagen 1A in CCD8-Lu cells; assay: Anti-fibrotic activity by immunocytochemistry staining (Experimental Example 3.2); format: cell-based, human; conditions: 6 hours after 5 ng/ml TGF-β
# Procedure: A cell-based assay experiment was performed to analyze the anti-fibrotic activity of pheophorbide a obtained in Preparation Example 2, using immunocytochemistry staining method.
# CCD8-Lu cells, which are human lung-derived fibroblasts, were cultured in the DMEM medium containing 10% FBS. About 2×10^4 cells were then inoculated into a 24 well plate and cultured for 24 hours, and subjected to the deficient condition in the DMEM medium from which FBS was removed for about 24 hours.
# After 24 hours, following the treatment with TGF-β at a concentration of 5 ng/ml, fibrosis of cells was induced for 6 hours. After 6 hours, the cells were treated with pheophorbide a obtained in Preparation Example 2 and further cultured for 18 hours (FIG. 2). Then, the negative control group was treated with nothing, the positive control group was treated with TGF-β alone at a concentration of 5 ng/ml, and the experimental groups were treated with TGF-β at a concentration of 5 ng/ml and 6 hours later, with pheophorbide a at each concentration of 0.15 μM, 0.3 μM, 0.6 μM, 1.2 μM, 2.5 μM and 5 μM.
# Immunohistochemistry analysis for each sample was performed as follows. […] The nuclei were stained using DAPI (4,6-diamidino-2-phenylindole) and the difference in the intensity of fluorescence was analyzed using a fluorescence microscope.
# [4] = system: α-SMA, collagen 1A and fibronectin in CCD8-Lu cells; assay: Comparison of anti-fibrotic activity by Western blotting (Experimental Example 4.2); format: cell-based, human; conditions: 2.5 μM and 5 μM, 6 hours after 5 ng/ml TGF-β, 18 hours
# Procedure: A cell-based analysis experiment was performed to analyze the anti-fibrotic activity of pheophorbide a in comparison with nintedanib and pirfenidone, which were previously approved as a therapeutic agent for pulmonary fibrosis, using Western blotting assay.
# CCD8-Lu cells, which are human lung-derived fibroblasts, were cultured in the DMEM medium containing 10% FBS. About 2×10^5 cells were then inoculated into a 6 well plate, cultured for 24 hours, and subjected to the deficient condition in the DMEM medium from which FBS was removed for about 24 hours.
# 24 hours later, following the treatment with TGF-β at a concentration of 5 ng/ml, fibrosis of cells was induced for 6 hours. Then, the cells were treated with pheophorbide a obtained in Preparation Example 2 or the therapeutic agent for pulmonary fibrosis and further cultured for 18 hours. Then, the negative control group was treated with nothing, the positive control group was treated with TGF-β alone at a concentration of 5 ng/ml, and the experimental groups were treated with TGF-β at a concentration of 5 ng/ml and 6 hours later, with pheophorbide a at a concentration of […] or 5 μM, nintedanib at a concentration of 1 μM, and pirfenidone at a concentration of 1 mM, respectively.
# After 18 hours, the culture medium was removed and the cells were washed twice by adding a PBS buffer solution, and 100 μl of RIPA buffer solution (150 mM NaCl, 1% NP-40, 0.5% Deoxycholic acid, 0.1% SDS, 50 mM Tris pH 7.5) containing a protease inhibitor was added thereto directly. 10 minutes later, the cells were recovered using a scraper and transferred to a microtube and centrifuged at about 12,000×g for 10 minutes.
# The separated supernatant was obtained and transferred to a new microtube and then the protein was quantified using a bicinchoninic acid assay (BCA assay) protein quantitative kit. Each sample with the same amount of protein was subjected to electrophoresis, and then Western blotting was performed. […]
# [5] = system: collagen 1A in CCD8-Lu cells; assay: Comparison of anti-fibrotic activity by immunocytochemistry staining (Experimental Example 4.3); format: cell-based, human; conditions: 2.5 μM and 5 μM; 6 hours after 5 ng/ml TGF-β; fluorescence intensity
# Procedure: A cell-based analysis experiment was performed to analyze the anti-fibrotic activity of pheophorbide a in comparison with nintedanib and pirfenidone, which were previously approved as a therapeutic agent for pulmonary fibrosis, using immunocytochemistry staining method. CCD8-Lu cells, which are human lung-derived fibroblasts, were cultured in the DMEM medium containing 10% FBS. About 2×10^4 cells were then inoculated into a 24 well plate and cultured for 24 hours, and subjected to the deficient condition in the DMEM medium from which FBS was removed for about 24 hours. After 24 hours, following the treatment with TGF-β at a concentration of 5 ng/ml, fibrosis of cells was induced for 6 hours. After 6 hours, the cells were treated with 2.5 μM or 5 μM of pheophorbide a, 1 μM of nintedanib, or 1 mM of pirfenidone. Immunohistochemistry analysis for each sample was performed as follows. First, the sample was washed twice with a PBS buffer, and then 4% formaldehyde was added to fix for 1 hour, and anti-collagen 1A was used as a primary antibody and Alexa Fluor 488 was used as a secondary antibody. The nuclei were stained using DAPI (4,6-diamidino-2-phenylindole) and the difference in the intensity of fluorescence was analyzed using a fluorescence microscope.
substance,measurement,setting,value
pheophorbide a,cytotoxicity,[1]; concentration of 5 μM,about 25%
same,cytotoxicity,[1]; concentration of 10 μM,about 75%
same,cytotoxicity,[1]; up to a concentration of 2.5 μM,little cytotoxicity
same,activity of Smad protein increased by TGF-β (luciferase),[2],decreased by pheophorbide a in a concentration-dependent manner
same,increased expression of collagen 1A induced by TGF-β,"[3]; 0.15-5 μM, fluorescence intensity",largely inhibited
same,inhibitory effect on the increased expression of collagen 1A induced by TGF-β,[3]; concentration of 2.5 μM or more,most excellent inhibitory effect
same,"expression of the α-SMA, collagen 1A, and fibronectin induced by TGF-β",[4],remarkably inhibited
same,increased expression of collagen 1A induced by TGF-β,[5],remarkably inhibited
